Measured values published in US6861426B2, “Crystal forms of lamotrigine and processes for their preparations” (Teva Pharmaceutical Industries Ltd., priority 2001, dated 2005).

Assay: Heating of Lamotrigine Solvates/Hydrates (annealing; crystal form afterwards)
Type: physicochemical
Details: resulting crystal form
Procedure: All X-ray powder diffraction patterns were obtained by methods known in the art. One method employs the use of a Philips X-Ray powder diffractometer, Goniometer model 1050/70 at a scanning speed of 20 per minute. Another method employs the use of a Scintag X'TRA X-ray powder diffractometer, equipped with a solid state Si(Li) detector thermoelectrically cooled, at a scanning speed of 30 min.^−1 Scanning range […] two-theta. Copper radiation of 1.5418 Å was used. According to one embodiment, the present invention provides a process for preparing lamotrigine form A including heating lamotrigine solvates at temperatures elevated enough to remove all the solvent from the crystal, usually above 100° C. for a period of about 2 hours, preferably above 110° C. for a period of about 1 hour, more preferably at about 150° C. for a period of about ½ hour. [table]

For `Nc1nnc(-c2cccc(Cl)c2Cl)c(N)n1` [J ispropanolate, 6-(2,3-Dichlorophenyl)-1,2,4-triazine-3,5-diamine], the “Crystal form after annealing at 80° C. 60 min” value (solid heated at 80° C. for 60 min) was “Amorphous”.

In the case of `Nc1nnc(-c2cccc(Cl)c2Cl)c(N)n1` [C DMF monosolvate, 6-(2,3-Dichlorophenyl)-1,2,4-triazine-3,5-diamine], the “Crystal form after annealing at 110° C. 45 min” value (solid heated at 110° C. for 45 min) is reported as “A + P”.
